According to patent US6274715A, “Tricyclic erythromycin derivatives” (priority 1997, dated 2001):
Converted amounts (≈) assume the structure as drawn.

How the values were obtained:
Type in all cases: cell-based
[1] = test system: MYCOBACTERIUM SMEGMATIS ATCC 114; test: In vitro antibacterial activity, MIC, BHI agar dilution; settings: M. smegmatis ATCC 114, unit assumed
ESCHERICHIA COLI KNK 437 = settings: E. coli KNK 437; BHI agar; unit assumed
[2] = test system: STAPHYLOCOCCUS AUREUS NCTC10649M; test: In vitro antibacterial activity, MIC, BHI agar dilution; settings: S. aureus NCTC10649M, unit assumed
[3] = test system: STAPHYLOCOCCUS AUREUS CMX 553; test: as above; settings: S. aureus CMX 553, unit assumed
[4] = test system: PROVIDENCIA STUARTII CMX 640; settings: P. stuartii CMX 640; BHI agar; unit assumed
[5] = test system: PSEUDOMONAS AERUGINOSA K799/61; test: In vitro antibacterial activity, MIC, BHI agar dilution; settings: P. aeruginosa K799/61, unit assumed
[6] = test system: STREPTOCOCCUS PYOGENES PIU 2548; test: as above; settings: S. pyogenes PIU 2548, unit assumed
CANDIDA ALBICANS CCH 442 = test: as above; settings: C. albicans CCH 442, unit assumed
ESCHERICHIA COLI DC-2 = test: as above; settings: E. coli DC-2, unit assumed
H. Influenza Dill AMP R = test: In vitro antibacterial activity against H. Influenza Dill AMP R, MIC; settings: separate assay, unit assumed
Procedure: Representative compounds of the present invention were assayed in vitro for antibacterial activity as follows: Twelve petri dishes containing successive aqueous dilutions of the test compound mixed with 10 mL of sterilized Brain Heart Infusion (BHI) agar (Difco 0418-01-5) were prepared. Each plate was inoculated with 1:100 (or 1:10 for slow-growing strains, such as Micrococcus and Streptococcus) dilutions of up to 32 different microorganisms, using a Steers replicator block. The inoculated plates were incubated at 35-37° C. for 20 to 24 hours. In addition, a control plate, using BHI agar containing no test compound, was prepared and incubated at the beginning and end of each test.
After incubation, each plate was visually inspected. The minimum inhibitory concentration (MIC) was defmed as the lowest concentration of drug yielding no growth, a slight haze, or sparsely isolated colonies on the inoculum spot as compared to the growth control.
In a separate assay representative compounds of the invention were assayed in vitro for antibacterial activity against the H. Influenza Dill AMP R strain, according to the protocol described above.

[7] = test system: STAPHYLOCOCCUS AUREUS A-5278; test: In vitro antibacterial activity, MIC, BHI agar dilution; settings: S. aureus A-5278, unit assumed
[8] = test system: STAPHYLOCOCCUS AUREUS CMX 642A; test: as above; settings: S. aureus CMX 642A, unit assumed
[9] = test system: STAPHYLOCOCCUS EPIDERMIDIS 3519; settings: S. epidermidis 3519; BHI agar; unit assumed
[10] = test system: PSEUDOMONAS AERUGINOSA DPHD-2862; test: In vitro antibacterial activity, MIC, BHI agar dilution; settings: P. aeruginosa DPHD-2862, unit assumed
[11] = test system: STREPTOCOCCUS PYOGENES EES61; test: as above; settings: S. pyogenes EES61, unit assumed
[12] = test system: STAPHYLOCOCCUS AUREUS ATCC 6538P; test: as above; settings: S. aureus ATCC 6538P, 35-37° C., 20 to 24 hours, unit assumed
[13] = test system: STREPTOCOCCUS PYOGENES 930; test: as above; settings: S. pyogenes 930, unit assumed
PSEUDOMONAS CEPACIA 296I = test: as above; settings: P. cepacia 296I, unit assumed
[14] = test system: PSEUDOMONAS AERUGINOSA 5007; test: as above; settings: P. aeruginosa 5007, unit assumed
[15] = test system: STAPHYLOCOCCUS AUREUS 1775; test: as above; settings: S. aureus 1775, unit assumed
[16] = test system: STAPHYLOCOCCUS AUREUS A5177; test: as above; settings: S. aureus A5177, unit assumed
[17] = test system: PSEUDOMONAS AERUGINOSA K799/WT; test: as above; settings: P. aeruginosa K799/WT, unit assumed
ESCHERICHIA COLI SS = test: as above; settings: E. coli SS, unit assumed
M[…] ATCC 9341 = test: as above; settings: M. luteus ATCC 9341, unit assumed
In short: (§1)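 Agar dilution in BHI: plates inoculated with 1:100 dilutions of organisms (1:10 for Micrococcus and Streptococcus), incubated 20-24 h at 35-37° C, then inspected for the lowest inhibitory concentration against a drug-free growth control.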

M[…] ATCC 4698 = test: as above; settings: M. luteus ATCC 4698, unit assumed
In short: as §1

EN[…] ATCC 8043 = test: as above; settings: E. faecium ATCC 8043, unit assumed
In short: as §1

STR[…] 508 = test: as above; settings: S. agalactiae CMX 508, unit assumed
In short: as §1

[18] = test system: PSEUDOMONAS AERUGINOSA BMH10; test: as above; settings: P. aeruginosa BMH10, unit assumed
[19] = test system: ENTEROBACTER AEROGENES ATCC 13048; test: as above; settings: E. aerogenes ATCC 13048, unit assumed
[20] = test system: PSEUDOMONAS AERUGINOSA DPHD-5263; test: as above; settings: P. aeruginosa DPHD-5263, unit assumed
[21] = test system: STREPTOCOCCUS BOVIS A-5169; test: as above; settings: S. bovis A-5169, unit assumed
ESCHERICHIA COLI JUHL = settings: E. coli JUHL; BHI agar; unit assumed
ESCHERICHIA COLI H560 = test: In vitro antibacterial activity, MIC, BHI agar dilution; settings: E. coli H560, unit assumed
[22] = test system: ACINETOBACTER CALCOACETICUS CMX 669; test: as above; settings: A. calcoaceticus CMX 669, unit assumed
[23] = test system: KLEBSIELLA PNEUMONIAE ATCC 8045; test: as above; settings: K. pneumoniae ATCC 8045, unit assumed

Row | Compound | MIC [1] [µg/mL] | MIC (ESCHERICHIA COLI KNK 437) [µg/mL] | MIC [2] [µg/mL] | MIC [3] [µg/mL] | MIC [4] [µg/mL] | MIC [5] [µg/mL] | MIC [6] [µg/mL] | MIC (CANDIDA ALBICANS CCH 442) [µg/mL] | MIC (ESCHERICHIA COLI DC-2) [µg/mL] | MIC [7] [µg/mL] | MIC [8] [µg/mL] | MIC [9] [µg/mL] | MIC [10] [µg/mL] | MIC [11] [µg/mL] | MIC [12] [µg/mL] | MIC [13] [µg/mL] | MIC (PSEUDOMONAS CEPACIA 296I) [µg/mL] | MIC [14] [µg/mL] | MIC [15] [µg/mL] | MIC [16] [µg/mL] | other results
1 | CC[C@H]1OC(=O)[C@H](C)C(=O)[C@H](C)[C@@H](O[C@@H]2O[C@H](C)C[C@H](N(C)C)[C@H]2O)[C@](C)(OC)C[C@@H](C)C2=NC[C@H](COCc3cccc(F)c3)N3C(=O)O[C@@]1(C)[C@H]3[C@H]2C [Example 72] | 0.39 (≈ 0.503 µM) | 50 (≈ 64.4 µM) | 0.1 (≈ 0.129 µM) | 0.1 (≈ 0.129 µM) | > 100 | 0.39 (≈ 0.503 µM) | 0.39 (≈ 0.503 µM) | > 100 | 25 (≈ 32.2 µM) | > 100 | 0.1 (≈ 0.129 µM) | 0.2 (≈ 0.258 µM) | > 100 | 0.01 (≈ 0.0129 µM) | 0.1 (≈ 0.129 µM) | 50 (≈ 64.4 µM) | 50 (≈ 64.4 µM) | 100 (≈ 129 µM) | > 100 | 0.1 (≈ 0.129 µM) | MIC (H. Influenza Dill AMP R): 2 µg/mL (≈ 2.58 µM); MIC [17]: 50 µg/mL (≈ 64.4 µM); MIC (ESCHERICHIA COLI SS): 0.39 µg/mL (≈ 0.503 µM); MIC (M[…] ATCC 9341): ≤ 0.005 µg/mL; MIC (M[…] ATCC 4698): 0.2 µg/mL (≈ 0.258 µM); MIC (EN[…] ATCC 8043): 0.05 µg/mL (≈ 0.0644 µM); MIC (STR[…] 508): 0.01 µg/mL (≈ 0.0129 µM); MIC [18]: 50 µg/mL (≈ 64.4 µM); MIC [19]: 50 µg/mL (≈ 64.4 µM); MIC [20]: > 100 µg/mL; MIC [21]: ≤ 0.005 µg/mL; MIC (ESCHERICHIA COLI JUHL): 50 µg/mL (≈ 64.4 µM); MIC (ESCHERICHIA COLI H560): 12.5 µg/mL (≈ 16.1 µM)
2 | CC[C@H]1OC(=O)[C@H](C)C(=O)[C@H](C)[C@@H](O[C@@H]2O[C@H](C)C[C@H](N(C)C)[C@H]2O)[C@](C)(OC)C[C@@H](C)C2=NC3CN(CCc4ccccc4[N+](=O)[O-])CC3N3C(=O)O[C@@]1(C)[C@H]3[C@H]2C (stereo partly drawn) [Example 119] | 0.78 (≈ 0.942 µM) | > 100 | 0.2 (≈ 0.242 µM) | 0.2 (≈ 0.242 µM) | > 100 | 0.78 (≈ 0.942 µM) | 0.78 (≈ 0.942 µM) | > 100 | > 100 | > 100 | 0.39 (≈ 0.471 µM) | 0.39 (≈ 0.471 µM) | > 100 | 0.02 (≈ 0.0242 µM) | 0.39 (≈ 0.471 µM) | > 100 | > 100 | > 100 | > 100 | 0.39 (≈ 0.471 µM) | MIC [22]: 100 µg/mL (≈ 121 µM); MIC [17]: > 100 µg/mL; MIC (ESCHERICHIA COLI SS): 0.78 µg/mL (≈ 0.942 µM); MIC (M[…] ATCC 9341): 0.05 µg/mL (≈ 0.0604 µM); MIC (M[…] ATCC 4698): 0.39 µg/mL (≈ 0.471 µM); MIC (EN[…] ATCC 8043): 0.1 µg/mL (≈ 0.121 µM); MIC (STR[…] 508): 0.02 µg/mL (≈ 0.0242 µM); MIC [18]: > 100 µg/mL; MIC [23]: > 100 µg/mL; MIC [19]: > 100 µg/mL; MIC [20]: > 100 µg/mL; MIC [21]: 0.02 µg/mL (≈ 0.0242 µM); MIC (ESCHERICHIA COLI JUHL): 100 µg/mL (≈ 121 µM); MIC (ESCHERICHIA COLI H560): > 100 µg/mL
3 | CC[C@H]1OC(=O)[C@H](C)C(=O)[C@H](C)[C@@H](O[C@@H]2O[C@H](C)C[C@H](N(C)C)[C@H]2O)[C@](C)(OC)C[C@@H](C)C2=NCC(CNCc3ccccc3)N3C(=O)O[C@@]1(C)[C@H]3[C@H]2C (stereo partly drawn) [Example 131] | 1.56 (≈ 2.06 µM) | 25 (≈ 33 µM) | 0.39 (≈ 0.515 µM) | 0.39 (≈ 0.515 µM) | > 100 | 0.78 (≈ 1.03 µM) | 0.78 (≈ 1.03 µM) | > 100 | 25 (≈ 33 µM) | > 100 | 0.39 (≈ 0.515 µM) | 0.39 (≈ 0.515 µM) | > 100 | 0.02 (≈ 0.0264 µM) | 0.39 (≈ 0.515 µM) | > 100 | 25 (≈ 33 µM) | > 100 | > 100 | 0.39 (≈ 0.515 µM) | MIC (H. Influenza Dill AMP R): 4 µg/mL (≈ 5.28 µM); MIC [17]: 50 µg/mL (≈ 66.1 µM); MIC (ESCHERICHIA COLI SS): 0.2 µg/mL (≈ 0.264 µM); MIC (M[…] ATCC 9341): 0.02 µg/mL (≈ 0.0264 µM); MIC (M[…] ATCC 4698): 0.2 µg/mL (≈ 0.264 µM); MIC (EN[…] ATCC 8043): 0.1 µg/mL (≈ 0.132 µM); MIC (STR[…] 508): 0.05 µg/mL (≈ 0.0661 µM); MIC [18]: > 100 µg/mL; MIC [19]: 50 µg/mL (≈ 66.1 µM); MIC [20]: > 100 µg/mL; MIC (ESCHERICHIA COLI JUHL): 50 µg/mL (≈ 66.1 µM); MIC (ESCHERICHIA COLI H560): 12.5 µg/mL (≈ 16.5 µM)
